The values that follow come from patent US20040048834A1, “Antitumoral compounds” (priority 2000, published 2004).

The structures appear in SMILES notation.

Common to all, as to assay type: cell-based
One data set has as its system Molt 3. The data set can be described thus: Cytotoxicity MTS, leukemias/lymphomas, Molt 3. The following applies: 4-Parameter Curve Fit, NA = not active, read-out: Cytotoxicity IC50 ALL (Acute lymphobalstic) Molt 3.
A further data set has as its system Hut 78. The data set can be described thus: Cytotoxicity MTS, leukemias/lymphomas, Hut 78. The following applies: 4-Parameter Curve Fit, NA = not active, read-out: Cytotoxicity IC50 Lymphoma (Cutaneous T cell) Hut 78.
In another data set the test system is U-937. The data set can be described thus: Cytotoxicity MTS, leukemias/lymphomas, U-937. The conditions noted are these: 4-Parameter Curve Fit, NA = not active, read-out: Cytotoxicity IC50 Lymphoma (Histiocytic) U-937.
In a further data set the test system is MC116. The data set can be described thus: Cytotoxicity MTS, leukemias/lymphomas, MC116. The following applies: 4-Parameter Curve Fit, NA = not active, read-out: Cytotoxicity IC50 Lymphoma (undifferentiated) MC116.
A further data set has as its system FADU. The experiment in a line: Cytotoxicity MTS, solid tumors, Pharynx FADU. The conditions noted are these: 4-Parameter Curve Fit, NA = not active.
For a further data set, the system named is Hs746t. The experiment in a line: Cytotoxicity MTS, solid tumors, Gastric Hs746t. The following applies: 4-Parameter Curve Fit, NA = not active.
In the next data set the test system is HT-29. The experiment in a line: Cytotoxicity MTS, solid tumors, Colon HT-29. The following applies: 4-Parameter Curve Fit, NA = not active.
For another data set, the system named is 786-O. The data set can be described thus: Cytotoxicity MTS, solid tumors, Renal 786-O. The following applies: 4-Parameter Curve Fit, NA = not active.
The next data set relates to A549. The experiment in a line: Cytotoxicity MTS, solid tumors, NSCL A549. The conditions noted are these: 4-Parameter Curve Fit, NA = not active.
A further data set deals with SK-OV-3. The experiment in a line: Cytotoxicity MTS, solid tumors, Ovary SK-OV-3. The following applies: 4-Parameter Curve Fit, NA = not active.
The next data set relates to SK-HEP-1. The experiment in a line: Cytotoxicity MTS, solid tumors, Liver SK-HEP-1. The following applies: 4-Parameter Curve Fit, NA = not active.
The next data set has as its system MX-1. The experiment in a line: Cytotoxicity MTS, solid tumors, Breast MX-1. The conditions noted are these: 4-Parameter Curve Fit, NA = not active.
In the next data set the test system is DU-145. The data set can be described thus: Cytotoxicity MTS, solid tumors, Prostate DU-145. The following applies: 4-Parameter Curve Fit, NA = not active.
The subject of another data set is 5637. The data set can be described thus: Cytotoxicity MTS, solid tumors, Bladder 5637. The following applies: 4-Parameter Curve Fit, NA = not active.
A further data set concerns CHSA. The experiment in a line: Cytotoxicity MTS, solid tumors, Chondrosarcoma CHSA. The following applies: 4-Parameter Curve Fit, NA = not active.
A further data set concerns Y-79. The data set can be described thus: Cytotoxicity MTS, solid tumors, Retinoblastoma Y-79. The following applies: 4-Parameter Curve Fit, NA = not active.
In another data set the test system is PC-3. The data set can be described thus: Cytotoxicity MTS, solid tumors, Prostate PC-3. The conditions noted are these: 4-Parameter Curve Fit, NA = not active.
The subject of a further data set is Mel-28. The data set can be described thus: Cytotoxicity MTS, solid tumors, Melanoma Mel-28. The conditions noted are these: 4-Parameter Curve Fit, NA = not active.
A further data set deals with HL-60. The experiment in a line: Cytotoxicity MTS, leukemias/lymphomas, HL-60. The following applies: read-out: Cytotoxicity IC50 AML (acute promyelocytic leukemia) HL-60, 4-Parameter Curve Fit, NA = not active, read-out: Cytotoxicity IC50 ALL (Promyelocytic leukemia) HL-60.
A further data set has as its system P3HR1. The data set can be described thus: Cytotoxicity MTS, leukemias/lymphomas, P3HR1. The conditions noted are these: 4-Parameter Curve Fit, NA = not active, read-out: Cytotoxicity IC50 Lymphoma (Burkitts ascites) P3HR1.
The next data set relates to ARH-77. The experiment in a line: Cytotoxicity MTS, leukemias/lymphomas, ARH-77. The following applies: 4-Parameter Curve Fit, NA = not active, read-out: Cytotoxicity IC50 Leukemia (Plasma cell) ARH-77.
A further data set deals with RAMOS. The data set can be described thus: Cytotoxicity MTS, leukemias/lymphomas, RAMOS. The conditions noted are these: 4-Parameter Curve Fit, NA = not active, read-out: Cytotoxicity IC50 Lymphoma (Burkitts B cell) RAMOS.
The test system of another data set is K562. The data set can be described thus: Cytotoxicity MTS, leukemias/lymphomas, K562. The conditions noted are these: 4-Parameter Curve Fit, NA = not active, read-out: Cytotoxicity IC50 CML (Chronic myelogenous) K562.
Another data set deals with H9. The experiment in a line: Cytotoxicity MTS, leukemias/lymphomas, H9. The conditions noted are these: 4-Parameter Curve Fit, NA = not active, read-out: Cytotoxicity IC50 Lymphoma (T cell) H9.

Usually IC50 stands for the midpoint of a concentration-inhibition curve. Regarding `CCCCCCCCCCCCCCCCC(O)C(C)N` (centres unmarked), the IC50 in the data set on Molt 3 amounted to 1120 nM; in the data set on Hut 78, 10600 nM; in the data set with U-937, 29.8 nM; in the data set with MC116, 8820 nM.
Regarding `CCCCCCCCCCCCCCC[C@@H](O)[C@H](C)N` [drawing 112], the concentration for half-maximal inhibition (IC50) in the data set on FADU was 249 nM; in the data set with Hs746t, 395 nM; in the data set with HT-29, 128 nM; in the data set on 786-O, 138 nM; with A549, 85.7 nM; in the data set with SK-OV-3 it was 702 nM. For the same compound, the IC50 with SK-HEP-1 was 297 nM; in the data set with MX-1 it was 1950 nM.
On to `CCCCCCCCCCCCCCC(O)C(C)N` (centres unmarked) [drawing 126], for which the values for the IC50 with Molt 3, in the data set on Hut 78 and in the data set on MC116 were 9.83 nM, 8810 nM and 9580 nM, respectively.
Take `CCCCCCCCCCCCCCC[C@@H](O)[C@@H](N)CF` [drawing 122]: the IC50 amounted to 3960 nM in the data set with FADU; 49.5 nM with DU-145; 16200 nM in the data set with Hs746t; 1450 nM in the data set on 5637; 3300 nM in the data set on 786-O; 4620 nM with CHSA. Moreover, the IC50 in the data set with Y-79 amounted to 1650 nM; with SK-HEP-1, 15500 nM; in the data set on PC-3, 21800 nM; in the data set on Mel-28, 2540 nM; in the data set with MX-1, 4290 nM.
In the case of `CCCCCCCCCCCCCCC[C@@H](O)[C@@H](N)CF` [drawing 133], the IC50 in the data set with HL-60 is 1290 nM.
With `CCCCCCCCCCCCCCCC(O)C(C)N` (centres unmarked), the IC50 came to 3370 nM in the data set on P3HR1; 682 nM with ARH-77; 425 nM with HL-60; 2140 nM with RAMOS; 784 nM in the data set on K562; 2160 nM with Hut 78. Moreover, the results for the IC50 in the data set with U-937 and with H9 were 981 nM and 1550 nM, respectively.
For `CCCCCCCCCCCCCCCCCC(=O)[C@H](C)N` [drawing 131], the IC50 in the data set with Molt 3 turned out to be 14300 nM; in the data set on RAMOS, 1650 nM; in the data set with H9, 2590 nM.
`CCCCCCCCCCCCCCCC(=O)C(N)CC` (centres unmarked): the IC50 in the data set with Molt 3 is 581 nM; in the data set with RAMOS, 1210 nM; in the data set on H9 it was 5980 nM.
